“Also recorded” adds a separate entry of the source.
Experiments:
[1] = target: T1, M2 receptors (Cavia porcellus, UniProt H0VRN8); experiment: Dose response curve of acetylcholine on isolated guinea pig atria; conditions: for Inhibitory effect on rate and force of contraction of guinea pig atria (M2 block): dosage range used
T1 construct: The atria beat spontaneously; from tissue; host or cells: isolated guinea pig atria
T1 sequence (H0VRN8 1-466): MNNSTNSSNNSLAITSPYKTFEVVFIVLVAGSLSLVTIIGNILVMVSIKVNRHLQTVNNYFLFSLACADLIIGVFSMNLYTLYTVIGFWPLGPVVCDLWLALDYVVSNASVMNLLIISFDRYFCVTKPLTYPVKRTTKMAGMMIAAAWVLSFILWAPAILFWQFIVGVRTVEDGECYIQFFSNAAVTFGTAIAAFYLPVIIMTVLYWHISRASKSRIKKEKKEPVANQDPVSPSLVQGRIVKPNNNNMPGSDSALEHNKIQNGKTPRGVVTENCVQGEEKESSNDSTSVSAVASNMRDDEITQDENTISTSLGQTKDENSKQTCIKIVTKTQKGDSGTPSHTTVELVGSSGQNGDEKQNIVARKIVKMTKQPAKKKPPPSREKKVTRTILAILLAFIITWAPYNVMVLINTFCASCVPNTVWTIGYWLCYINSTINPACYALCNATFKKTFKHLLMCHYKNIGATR
Experimental: The in vitro experiments were performed on atria, ileum and bladder tissues of guinea pig. Atria were removed, and one end was tied to an oxygen tube and the other end was fixed to a Force transducer (Model T-305), which is connected to a physiograph (Biodevices Physiograph). The atria beat spontaneously, and after equilibration (30 minutes), resting tension was adjusted to the peak of the length tension curve followed by a re-equilibration period (30 minutes). Cumulative concentration response curves to acetylcholine were obtained before and after addition of increasing concentrations of the compound (doses said in Example 5). Responses were expressed as a percentage of the maximal inhibition of atrial rate induced by acetylcholine in absence of the antagonist (compound).

[2] = system: Salmonella; conditions: Salmonella and mammalian microsome assays; cited from earlier work
[3] = rat, in vivo; cited from earlier work
[4] = target: T2, M3 receptors (Cavia porcellus, UniProt H0W1Z3); experiment: Dose response curve of acetylcholine on isolated guinea pig ileum; conditions: 98, 196 and 392×10^−6 moles per ml of bath
T2 construct: from tissue; host or cells: guinea pig longitudinal ileal muscle; guinea pig bladder detrusor strips
T2 sequence (H0W1Z3 1-590): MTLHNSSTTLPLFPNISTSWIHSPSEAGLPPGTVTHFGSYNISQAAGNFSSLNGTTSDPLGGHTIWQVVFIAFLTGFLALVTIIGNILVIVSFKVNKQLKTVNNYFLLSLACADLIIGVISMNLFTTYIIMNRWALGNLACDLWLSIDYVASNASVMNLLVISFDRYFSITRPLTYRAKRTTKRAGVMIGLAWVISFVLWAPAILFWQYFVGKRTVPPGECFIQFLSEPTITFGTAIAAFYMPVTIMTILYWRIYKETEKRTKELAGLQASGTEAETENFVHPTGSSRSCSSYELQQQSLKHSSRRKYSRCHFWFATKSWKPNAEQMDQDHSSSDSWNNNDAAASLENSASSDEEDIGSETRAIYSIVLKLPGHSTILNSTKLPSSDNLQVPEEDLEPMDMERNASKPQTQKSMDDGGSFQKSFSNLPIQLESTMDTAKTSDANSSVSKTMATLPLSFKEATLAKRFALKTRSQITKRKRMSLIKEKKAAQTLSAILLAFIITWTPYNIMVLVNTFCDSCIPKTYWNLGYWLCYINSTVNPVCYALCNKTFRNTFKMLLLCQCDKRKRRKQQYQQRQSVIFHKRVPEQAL
From the text: (§1) The three doses prepared and applied were 98×10^−6 moles per milliliter of bath concentration; 196×10^−6 moles per milliliter of bath concentration and 392×10^−6 moles per milliliter of bath concentration. For comparative purposes, the three doses of atropine used were 35×10^−6 moles per milliliter of bath concentration; 86×10^−6 moles per milliliter of bath concentration and 173×10^−[…] moles per milliliter of bath concentration.
The longitudinal ileal muscle was suspended in an organ bath in aerated Tyrode solution. […]. Doses of the compound were as given in Example 5.

[5] = target: T2, M3 receptors; experiment: Dose response curve of acetylcholine on guinea pig bladder detrusor strips; conditions: 98, 196 and 392×10^−6 moles per ml of bath
From the text: as §1
The longitudinal bladder detrusor strips were suspended under a resting tension (0.5 g) in aerated Tyrode physiological solution. Tension was measured with an isometric force transducer (FT 305), and responses were recorded on a Biodevices Physiograph. Antimuscarinic activity was determined from concentration response curves to acetylcholine in the absence or presence of increasing concentrations of the said compound. Contractile responses were expressed as a percentage of the maximum contraction elicited by acetylcholine in the absence of the said compound.

[6] = target: T3, M1 receptors (Rattus norvegicus, UniProt P08482); experiment: Basal gastric acidity by pyloric ligation in rats; format: in vivo; conditions: for % inhibition of gastric acidity: 15 min before pyloric ligation
T3 construct: from tissue; host or cells: living albino rats (stomach)
T3 sequence (P08482 1-460): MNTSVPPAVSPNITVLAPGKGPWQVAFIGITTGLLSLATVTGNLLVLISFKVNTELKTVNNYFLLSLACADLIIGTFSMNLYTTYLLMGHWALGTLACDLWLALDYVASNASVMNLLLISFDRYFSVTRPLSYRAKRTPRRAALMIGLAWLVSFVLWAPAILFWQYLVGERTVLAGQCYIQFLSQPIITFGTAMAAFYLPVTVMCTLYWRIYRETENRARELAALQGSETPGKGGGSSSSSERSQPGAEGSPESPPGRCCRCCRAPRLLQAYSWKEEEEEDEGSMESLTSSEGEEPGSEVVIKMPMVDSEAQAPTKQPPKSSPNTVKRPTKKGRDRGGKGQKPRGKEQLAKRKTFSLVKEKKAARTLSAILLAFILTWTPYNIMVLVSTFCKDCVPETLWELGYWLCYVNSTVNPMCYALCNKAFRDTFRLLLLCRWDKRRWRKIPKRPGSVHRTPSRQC
Experimental: These activities were tested upon rats. […] For comparative purposes, the doses of atropine used for testing gastric acidity were 0.01 milligram per kilogram of the body weight of rat injected subcutaneously (0.01 mg/kg s.c), 0.05 milligram per kilogram of the body weight of rat injected subcutaneously (0.05 mg/kg s.c), 0.10 milligram per kilogram of the body weight of rat injected subcutaneously (0.10 mg/kg s.c.).
The in vivo experiments for gastric acidity testing were performed by pyloric ligation on rats. Albino rats of either sex weighing 190-250 grams were randomly divided into groups of 6, with a group of 6 rats serving as control. All the rats were starved for 48 hours prior to the experiment. After the first 24 hours, they were given access to 8% sucrose in 0.2% sodium chloride for 8 hours. Water was permitted adlibitum except during the 8 hours of sucrose treatment and 2 hours previous to pyloric ligation.
Basal gastric acidity was determined by pyloric ligation under ether anaesthesia followed by gastric lavage with normal saline. […] Three hours later the animals were killed and the stomach was tied at the oesophageal junction and removed. The contents were collected by cutting along the greater curvature and the free acidity was determined by titration against 0.01 normal NaOH using Topfers reagent as indicator.

Row | Structure (SMILES) | Inhibitory effect on rate and force of contraction of guinea pig atria (M2 block) [1] | Inotropic or chronotropic effect on its own on guinea pig atrium ([1]; 20, 40, 196 and 392×10^−6 moles per ml of bath) | Mutagenic effect [2] | Oral toxicity [3] | Antagonism of acetylcholine contractions of ileum smooth muscle [4] | Antagonism of acetylcholine on bladder detrusor strips [5] | % inhibition of gastric acidity ([6]; rat, 1 mg/kg s.c.) | % inhibition of gastric acidity ([6]; rat, 3 mg/kg s.c., 3 mg/kg) | % inhibition of gastric acidity ([6]; rat, 5 mg/kg s.c., 5 mg/kg) | Effect on basal gastric (free) acidity ([6]; rat, 1, 3 & 5 mg/kg s.c.) | ED50 ([6]; sc, rat, s.c., read-out: ED50 for inhibition of gastric acidity)
1 | CN1[C@@H]2CC[C@H]1C[C@@H](OC(=O)C(CO)c1ccccc1)C2 (stereo partly drawn) [Atropine, reference compound] | inhibitory effect on all the three receptors |  |  |  |  |  |  |  |  |  | 
2 | CCCCCCCCCCCCCCCC(=O)OC [methyl palmitate] | had no such effect in the dosage range used; also recorded: does not block M2 receptors | did not produce any positive inotropic or chronotropic effect | devoid of any mutagenic effect | nontoxic | antagonised contractions of smooth muscle of the ileum | antagonised the effect of acetylcholine in a dose-dependent and competitive manner | 50.72% | 55% | 91.5% | decreased free acidity; also recorded: inhibited basal gastric acidity dose dependently | 2.74 mg/kg

Reference: patent publication US6638546B2 (Council of Scientific & Industrial Research, priority 2001, dated 2003)
